Two molecules from US20140329854A1, “NOVEL HETEROCYCLIC COMPOUNDS USEFUL IN SIRTUIN BINDING AND MODULATION” (SMB Innovation, priority 2011, published 2014) can be followed below.

Data set [1] concerns the target T1, SIRT1 (Homo sapiens, UniProt Q96EB6).
T1 construct: purchased Cisbio Bioassays
T1 sequence (Q96EB6 1-747): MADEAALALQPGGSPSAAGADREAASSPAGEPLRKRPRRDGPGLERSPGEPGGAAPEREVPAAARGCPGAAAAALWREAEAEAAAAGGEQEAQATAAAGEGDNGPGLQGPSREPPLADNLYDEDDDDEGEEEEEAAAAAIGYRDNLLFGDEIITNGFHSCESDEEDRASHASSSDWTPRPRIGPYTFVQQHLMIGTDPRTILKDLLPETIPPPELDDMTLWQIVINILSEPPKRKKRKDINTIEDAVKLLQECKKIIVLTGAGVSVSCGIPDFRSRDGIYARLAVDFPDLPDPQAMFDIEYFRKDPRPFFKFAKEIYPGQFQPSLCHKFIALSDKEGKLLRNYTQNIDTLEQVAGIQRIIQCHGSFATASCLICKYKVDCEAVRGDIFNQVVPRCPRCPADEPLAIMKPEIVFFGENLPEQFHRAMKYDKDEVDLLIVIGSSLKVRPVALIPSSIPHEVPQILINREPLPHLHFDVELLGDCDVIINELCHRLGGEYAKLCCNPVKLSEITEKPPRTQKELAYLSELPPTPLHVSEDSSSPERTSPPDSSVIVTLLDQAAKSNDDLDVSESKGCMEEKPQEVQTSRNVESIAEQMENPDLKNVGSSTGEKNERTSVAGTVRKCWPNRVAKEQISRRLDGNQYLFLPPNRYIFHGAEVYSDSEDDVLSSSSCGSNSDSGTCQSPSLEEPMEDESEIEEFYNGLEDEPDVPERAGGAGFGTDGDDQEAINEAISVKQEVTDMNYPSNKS
In words: CISBIO HTRF SIRT1 assay of SIRT1 peptide deacetylation, modified by excluding NAD+. It is filed as biochemical. On the procedure: Generally, the CISBIO HTRF® fluorescence enzyme titration assay (Cisbio Bioassays, Cisbio, 135 South Road, Bedford, Mass. 01730, USA) has provided information on inhibition and/or activation of SIRT1 deacetylation of a substrate peptide d2 containing a single acetylated lysine residue and a fluorescence probe/quencher. IC50 and AC50 values have been obtained. The assay was performed in microtiter wells and involved an enzymatic step, wherein 2 μL of the substrate peptide (6 nM) is incubated with 2 μL of SIRT1 enzyme (2.5 ng) and 2 μL of compound solution in DMSO and water. Reaction with anti-acetyl cryptate produces a FRET signal giving maximum signal when no SIRT1 reaction can be detected. The detection step involves quantification of the deacetylation process using an anti-acetyl MAb labeled with Eu^3+ cryptate. The assay was modified by excluding the NAD+ cofactor and using nicotinamide as inhibition control and the compound SRT1720 as activation control. SRT 1720 is described as a SIRT1 activating compound in Pillarisetti, S. (2008).
Protocol for inhibition/activation assay:
After adding all enzymatic step ingredients the mixture is incubated at room temperature at 30 to 60 min. Then the detection reactant is added and incubated at room temperature for 5 hours and on to produce a signal. The fluorescence readout is given as percentage of signal produced with no enzyme reaction.
The cryptate is excited at 337 nm and the fluorescence is measured at 590 nm (cryptate emission wavelength) and 665 nm (d2 emission wavelength). A ratio is calculated (665/590 nm) for each well.
The figures show percentage fluorescence as a function of Log C (log of compound concentration in μM).
For orientation: TR-FRET usually uses a lanthanide donor and a delayed reading to cut background.

The subject of data set [2] is rat hepatocytes. The experiment in a line: Metabolic stability in rat hepatocytes. Conditions: for % Qh (rat): CLh as % of hepatic blood flow; for % Qh (rat) / rat CLh: rat Qh = 55 mL/min/kg; for rat CLh: hepatic clearance from CLint by well-stirred equation. It is filed as in vitro ADME. As for the experimental part: (§1) Stability of the six compounds in the presence of a drug metabolizing system such as human and rat hepatocytes was measured. Data were reported from the CRO in the format of hepatic intrinsic clearance (CLint) in mL/min/kg. These CLint data were converted using the well-stirred equation
(§2) to a whole body clearance (CLh, hepatic clearance), which is more directly physiologically interpreted (Qh, hepatic blood flow rate, mL/min/kg).

Data set [3] in a line: Metabolic stability in rat hepatocytes. It is filed as in vitro ADME. Conditions: rat hepatocytes, hepatic intrinsic clearance. As for the experimental part: as §1, §2
Data set [4] concerns human and rat hepatocytes. In words: Stability in cryopreserved hepatocytes (FIG. 7), verbal summary. Format: in vitro ADME. Conditions: 90 minutes. On the procedure: as §1
Data set [5] deals with MDCK-MDR1 cells. From the text:
MDR1 is the nomenclature for the major efflux transporter P-glycoprotein (P-gp), which is expressed at important anatomical barriers such as blood-brain, small intestine, and tumor cells. The MDCK-MDR model is a polarized cell model over expressing P-gp (i.e. P-gp is expressed on the Apical, or gut lumen, side of the cell) that is capable of actively effluxing small molecule substrates in the B to A direction. […] The compounds were run bidirectionally (Compound added to apical side and flux measured of compound appearing on the basolateral, or blood, side; compound added on basolateral side and flux of compound to apical side measured).

Data set [6] concerns CYP1A2, CYP2C9, CYP2C19, CYP2D6, CYP3A4. The experiment in a line: CYP inhibition in human liver microsomes.
A short description of data set [7]: Measured partition coefficients (MlogD7.4, logP11). It is filed as physicochemical. On the procedure:
Physical properties tPSA and ClogP (calculated lipophilicity octanol/water) were calculated using ChemDraw. Additionally, M log D7.4 (measured partition coefficient at pH 7.4) and log P11 (measured partition coefficient at pH 11) were measured, and all data are shown in Table 7.

The nature of data set [8]: Kinetic aqueous solubility. It is filed as physicochemical. Conditions: phosphate buffer, pH 7.4, aqueous buffer, kinetic from dmso stock; read-out: Measured kinetic solubility.
The subject of data set [9] is human hepatocytes. In words: Metabolic stability in human hepatocytes. It is filed as in vitro ADME. The following applies: for % Qh (human): CLh as % of hepatic blood flow; for % Qh (human) / hu CLh: human Qh = 21 mL/min/kg; for hu CLh: hepatic clearance from CLint by well-stirred equation. On the procedure:
as §1, §2

The nature of data set [10]: Metabolic stability in human hepatocytes. Conditions: human hepatocytes, hepatic intrinsic clearance; read-out: hu CLint. It is filed as in vitro ADME. On the procedure: as §1, §2
Data set [11] can be described thus: Solubility in DMSO stock solution. Conditions: solubility in DMSO before further dilution with water to 1% DMSO.
Data set [12] has as its system CYP1A2, 2C9, 2C19, 2D6, and 3A4. The following applies: microsomes.
Setting [13] is: measured partition coefficient at pH 7.4.

≈ marks a conversion by molar mass, not a printed value. Where two headings read alike, the source gives them in different places. Where only a bound is given, the exact number is not on record here.

`NC(=O)c1ccc(C(=O)Nc2ccc(O)cc2O)nc1` [Compound 3, 2-N(2,4-dihydroxyphenyl)pyridine-2,5-dicarboxamide]: the AC50 in data set [1] (average AC50 values, n = 6, read-out: AC50) came out at 10 µM. In addition, in data set [2], the “% Qh (rat)” value was 49.1% and the “rat CLh” value was determined as 27.0 mL/min/kg. This molecule returned a CLint scaled in [3] of 53 mL/min/kg. For the same molecule, in [4], the “Clearance in hepatocytes (in words)” value is listed as “relatively low clearance” and the “Stability in hepatocytes (in words)” value is given as “good stability”. Further, in [5], the “Cell permeability (in words)” value is “moderate cell permeability” and the “P-gp mediated efflux (in words)” value is reported as “no P-gp mediated efflux”. The molecule further came in with an IC50 in data set [6] above 5 µM. Also, the logD in data set [7] (setting [13]) is 0.8. The logP in data set [7] (measured partition coefficient at pH 11, read-out: MlogP11) was 1. Further, the kinetic solubility in data set [8] lay in the range of 14 to 55 µg/mL (≈ 51.2 to 201 µM). In data set [9], the “% Qh (human)” value turned out to be 79.8% and the “hu CLh” value is given as 16.8 mL/min/kg. In data set [10], the CLint scaled is 83 mL/min/kg. The “Concentration of compound in DMSO stock solution” value in [11] is 20000 µM.

As to `NC(=O)c1ccc(C(=O)Nc2ccc(O)c3ccccc23)cn1` [Compound 11, 5-N(4-hydroxy-1-naphthyl)pyridine-2,5-dicarboxamide], the AC50 in [1] (SIRT1 activation, no NAD+ cofactor, average n = 3, read-out: AC50 in μM, average, n = 3) was 114 µM. The AC50 in data set [1] (SIRT1 activation, no NAD+ cofactor, single experiment of FIGS. 1-4, read-out: AC50 in μM, n = 1) came to 3.3 µM. The “Modulation of SIRT1 deacetylating activity (in words)” value in [1] (dose response, FIGS. 1-5) is on record as “clear activation”. Also, the IC50 in data set [12] is above 5 µM. In addition, in data set [2], the “% Qh (rat)” value stood at 70.7% and the “rat CLh” value was determined as 38.9 mL/min/kg. Besides, the “rat CLint” value in data set [2] (rat hepatocytes, hepatic intrinsic clearance) turned out to be 133 mL/min/kg. Further, in data set [4], the “Clearance in hepatocytes (in words)” value is “relatively low clearance” and the “Stability in hepatocytes (in words)” value is listed as “good stability”. In addition, in [5], the “Cell permeability (in words)” value was “moderate cell permeability” and the “P-gp mediated efflux (in words)” value was “no P-gp mediated efflux”. In data set [7] (setting [13]), the MlogD7.4 is on record as 1.6. Besides, in data set [9], the “% Qh (human)” value is 60.4% and the “hu CLh” value is listed as 12.7 mL/min/kg. Moreover, the “hu CLint” value in data set [9] (human hepatocytes, hepatic intrinsic clearance) was determined as 32 mL/min/kg. Further, the “Concentration of compound in DMSO stock solution” value in data set [11] turned out to be 20000 µM.

By AC50 is commonly meant the concentration giving half of the maximal activity seen. The term IC50 denotes the concentration needed to halve the response being measured. Lower therefore signals greater potency in that assay. As usually defined, the logD is lipophilicity at a set pH, counting ionised and neutral species. The low end stands for lower lipophilicity, the high end for higher lipophilicity. One may read the solubility (kinetic) as solubility judged after dilution from a stock solution rather than from solid.
